Source: PubChem BioAssay AID1963421 (Molecular Pharmacology Branch, DTP, NCI, 2024)
“And” between values parts separate entries of the source, which are not always exact repeats. Equal values may be shown once.

Test system: 519858-162-T-J1-PDC complex spheroid growth, % test/control
Test: Anticancer human tumor 519858-162-T-J1-PDC patient-derived colon adenocarcinoma cell line growth inhibition [Asc]
Details: for viability, T/C: stronger effect = lower value
Summary of the method: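 Tumor cells were grown as complex spheroids with human endothelial cells (HUVEC) and human mesenchymal stem cells as stroma. Agents were tested alone and in combination, in half-log steps down from the clinical Cmax, or from 10 microM where Cmax was unknown.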
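Further: seven day drug exposure begun three days after spheroid seeding.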
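Wherever viability, T/C is given: 100% = DMSO vehicle wells and lower values mean less viable spheroid.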

## COc1c(OCCCN2CCOCC2)ccc2c3n(c(=NC(=O)c4cnc(N)nc4)nc12)CCN3 + CCN1C(C(=O)NC23CCC(C(=O)O)(CC2)CC3)C(c2cccc(Cl)c2F)C2(C(=O)Nc3cc(Cl)ccc32)C12CCCCC2
Curve of first compound, second compound 0.00949 µM
  IC50: > 1000 nM
Curve of first compound, second compound 0.03 µM
  IC50: > 1000 nM
Curve of first compound, second compound 0.0949 µM
  IC50: > 1000 nM
Curve of first compound, second compound 0.3 µM
  IC50: 749 nM
Curve of first compound, second compound 0.949 µM
  IC50: 301 nM
Curve of first compound, second compound 3 µM
  IC50: > 1000 nM
Second compound 0.00949 µM, first compound 0.00316 µM
  viability, T/C: 75.5%
Second compound 0.00949 µM, first compound 0.01 µM
  viability, T/C: 130%
Second compound 0.00949 µM, first compound 0.0316 µM
  viability, T/C: 88.6%
Second compound 0.00949 µM, first compound 0.1 µM
  viability, T/C: 80.3%
Second compound 0.00949 µM, first compound 0.316 µM
  viability, T/C: 70.8%
Second compound 0.00949 µM, first compound 1 µM
  viability, T/C: 53%
Second compound 0.03 µM, first compound 0.00316 µM
  viability, T/C: 95.3%
Second compound 0.03 µM, first compound 0.01 µM
  viability, T/C: 93.1%
Second compound 0.03 µM, first compound 0.0316 µM
  viability, T/C: 89.3%
Second compound 0.03 µM, first compound 0.1 µM
  viability, T/C: 80.3%
Second compound 0.03 µM, first compound 0.316 µM
  viability, T/C: 81.6%
Second compound 0.03 µM, first compound 1 µM
  viability, T/C: 57.3%
Second compound 0.0949 µM, first compound 0.00316 µM
  viability, T/C: 86.8%
Second compound 0.0949 µM, first compound 0.01 µM
  viability, T/C: 80.3%
Second compound 0.0949 µM, first compound 0.0316 µM
  viability, T/C: 98.1%
Second compound 0.0949 µM, first compound 0.1 µM
  viability, T/C: 77.2%
Second compound 0.0949 µM, first compound 0.316 µM
  viability, T/C: 64.2%
Second compound 0.0949 µM, first compound 1 µM
  viability, T/C: 55.9%
Second compound 0.3 µM, first compound 0.00316 µM
  viability, T/C: 89.8%
Second compound 0.3 µM, first compound 0.01 µM
  viability, T/C: 73.2%
Second compound 0.3 µM, first compound 0.0316 µM
  viability, T/C: 80.2%
Second compound 0.3 µM, first compound 0.1 µM
  viability, T/C: 84.3%
Second compound 0.3 µM, first compound 0.316 µM
  viability, T/C: 56.2%
Second compound 0.3 µM, first compound 1 µM
  viability, T/C: 47.9%
Second compound 0.949 µM, first compound 0.00316 µM
  viability, T/C: 69.6%
Second compound 0.949 µM, first compound 0.01 µM
  viability, T/C: 91.1%
Second compound 0.949 µM, first compound 0.0316 µM
  viability, T/C: 91%
Second compound 0.949 µM, first compound 0.1 µM
  viability, T/C: 47.5%
Second compound 0.949 µM, first compound 0.316 µM
  viability, T/C: 60.8%
Second compound 0.949 µM, first compound 1 µM
  viability, T/C: 32.1%
Second compound 3 µM, first compound 0.00316 µM
  viability, T/C: 78.4%
Second compound 3 µM, first compound 0.01 µM
  viability, T/C: 86%
Second compound 3 µM, first compound 0.0316 µM
  viability, T/C: 80.6%
Second compound 3 µM, first compound 0.1 µM
  viability, T/C: 57.6%
Second compound 3 µM, first compound 0.316 µM
  viability, T/C: 60.2%
Second compound 3 µM, first compound 1 µM
  viability, T/C: 50.4%

## C=C(F)C(=O)N1CCN(c2nc(OCC3CCCN3C)nc3c2CCN(c2cccc4cccc(Cl)c24)C3)CC1CC#N (stereo unspecified) + CNC(C)C(=O)NC1CN(S(=O)(=O)c2cccc(S(=O)(=O)N3CCC4CCC(C(=O)NC(c5ccccc5)c5ccccc5)N4C(=O)C(NC(=O)C(C)NC)C3)c2)CCC2CCC(C(=O)NC(c3ccccc3)c3ccccc3)N2C1=O
Curve of first compound, second compound 0.00316 µM
  IC50: > 10000 nM
Curve of first compound, second compound 0.01 µM
  IC50: > 10000 nM
Curve of first compound, second compound 0.0316 µM
  IC50: > 10000 nM
Curve of first compound, second compound 0.1 µM
  IC50: > 10000 nM
Curve of first compound, second compound 0.316 µM
  IC50: > 10000 nM
Curve of first compound, second compound 1 µM
  IC50: > 10000 nM
Second compound 0.00316 µM, first compound 0.0316 µM
  viability, T/C: 102%
Second compound 0.00316 µM, first compound 0.1 µM
  viability, T/C: 86.8%
Second compound 0.00316 µM, first compound 0.316 µM
  viability, T/C: 102%
Second compound 0.00316 µM, first compound 1 µM
  viability, T/C: 92.7%
Second compound 0.00316 µM, first compound 3.16 µM
  viability, T/C: 94.8%
Second compound 0.00316 µM, first compound 10 µM
  viability, T/C: 113%
Second compound 0.01 µM, first compound 0.0316 µM
  viability, T/C: 104%
Second compound 0.01 µM, first compound 0.1 µM
  viability, T/C: 83.7%
Second compound 0.01 µM, first compound 0.316 µM
  viability, T/C: 91.2%
Second compound 0.01 µM, first compound 1 µM
  viability, T/C: 82%
Second compound 0.01 µM, first compound 3.16 µM
  viability, T/C: 96.7%
Second compound 0.01 µM, first compound 10 µM
  viability, T/C: 108%
Second compound 0.0316 µM, first compound 0.0316 µM
  viability, T/C: 94.7%
Second compound 0.0316 µM, first compound 0.1 µM
  viability, T/C: 83.7%
Second compound 0.0316 µM, first compound 0.316 µM
  viability, T/C: 86.3%
Second compound 0.0316 µM, first compound 1 µM
  viability, T/C: 93.4%
Second compound 0.0316 µM, first compound 3.16 µM
  viability, T/C: 95.7%
Second compound 0.0316 µM, first compound 10 µM
  viability, T/C: 107%
Second compound 0.1 µM, first compound 0.0316 µM
  viability, T/C: 93.1%
Second compound 0.1 µM, first compound 0.1 µM
  viability, T/C: 91.2%
Second compound 0.1 µM, first compound 0.316 µM
  viability, T/C: 93.3%
Second compound 0.1 µM, first compound 1 µM
  viability, T/C: 89.2%
Second compound 0.1 µM, first compound 3.16 µM
  viability, T/C: 86.8%
Second compound 0.1 µM, first compound 10 µM
  viability, T/C: 116%
Second compound 0.316 µM, first compound 0.0316 µM
  viability, T/C: 88.2%
Second compound 0.316 µM, first compound 0.1 µM
  viability, T/C: 96.9%
Second compound 0.316 µM, first compound 0.316 µM
  viability, T/C: 106%
Second compound 0.316 µM, first compound 1 µM
  viability, T/C: 92.9%
Second compound 0.316 µM, first compound 3.16 µM
  viability, T/C: 82.2%
Second compound 0.316 µM, first compound 10 µM
  viability, T/C: 107%
Second compound 1 µM, first compound 0.0316 µM
  viability, T/C: 93.6%
Second compound 1 µM, first compound 0.1 µM
  viability, T/C: 101%
Second compound 1 µM, first compound 0.316 µM
  viability, T/C: 103%
Second compound 1 µM, first compound 1 µM
  viability, T/C: 92.6%
Second compound 1 µM, first compound 3.16 µM
  viability, T/C: 91.2%
Second compound 1 µM, first compound 10 µM
  viability, T/C: 112%

## Cn1ncnc1[C@H]1c2n[nH]c(=O)c3cc(F)cc(c23)N[C@@H]1c1ccc(F)cc1
Compound 0.000316 µM
  viability, T/C: 87.9% and 91% and 92%
Compound 0.001 µM
  viability, T/C: 97.2% and 98.2% and 79.8%
Compound 0.00316 µM
  viability, T/C: 99.3% and 92.3% and 101%
Compound 0.01 µM
  viability, T/C: 82.6% and 96.8% and 94.9%
Compound 0.0316 µM
  viability, T/C: 90.9% and 81.5% and 68.7%
Compound 0.1 µM
  viability, T/C: 96.8% and 78.6% and 84.5%
Curve of compound
  IC50: > 100 nM
